One assay concerns the target circulating FAPα (Mesocricetus auratus, UniProt A0ABM2XF29). The assay can be described thus: Ex vivo inhibition of circulating FAPα activity from hamster plasma (PRXS-AMC). Type of assay: biochemical, Golden Syrian hamster. As for the experimental part:
Male Golden Syrian hamsters were provided by National Laboratory Animal Center (NLAC) in Taiwan. The animals were maintained in a hygienic environment under controlled temperature (20-24° C.) and humidity (50%-80%) with 12 hours light/dark cycles. Free access to standard lab diet [MFG (Oriental Yeast Co., Ltd. Japan)] and autoclaved tap water were granted. All aspects of this work including housing, experimentation and disposal of animals were performed in general accordance with the “Guide for the Care and Use of Laboratory Animals: Eighth Edition” (National Academies Press, Washington, D.C., 2011). In addition, the animal care and use protocol was reviewed and approved by the IACUC at Pharmacology Discovery Services Taiwan, Ltd. Immediately after the sacrifice of hamsters, blood samples were collected via terminal cardiac puncture in tubes coated with EDTA-K2, mixed gently, then kept on ice and centrifuged at 2,500×g for 15 minutes at 4° C. After plasma separation, samples were stored at −80° C. in aliquots of 300 μL. To assay exemplary compounds in hamster plasma, a similar protocol as described for human plasma was performed diluting thawed plasma 1:2 in cFAP buffer. […] AMC release was detected measuring fluorescence at an excitation/emission wavelength of 380/460 nm using a Multifunction Microplate Reader. […]

In assay [1] the target is T1, recombinant human FAPα (rhFAPα) (Homo sapiens, UniProt Q12884).
T1 construct: purchased R&S system (so in the source)
T1 sequence (Q12884 1-760): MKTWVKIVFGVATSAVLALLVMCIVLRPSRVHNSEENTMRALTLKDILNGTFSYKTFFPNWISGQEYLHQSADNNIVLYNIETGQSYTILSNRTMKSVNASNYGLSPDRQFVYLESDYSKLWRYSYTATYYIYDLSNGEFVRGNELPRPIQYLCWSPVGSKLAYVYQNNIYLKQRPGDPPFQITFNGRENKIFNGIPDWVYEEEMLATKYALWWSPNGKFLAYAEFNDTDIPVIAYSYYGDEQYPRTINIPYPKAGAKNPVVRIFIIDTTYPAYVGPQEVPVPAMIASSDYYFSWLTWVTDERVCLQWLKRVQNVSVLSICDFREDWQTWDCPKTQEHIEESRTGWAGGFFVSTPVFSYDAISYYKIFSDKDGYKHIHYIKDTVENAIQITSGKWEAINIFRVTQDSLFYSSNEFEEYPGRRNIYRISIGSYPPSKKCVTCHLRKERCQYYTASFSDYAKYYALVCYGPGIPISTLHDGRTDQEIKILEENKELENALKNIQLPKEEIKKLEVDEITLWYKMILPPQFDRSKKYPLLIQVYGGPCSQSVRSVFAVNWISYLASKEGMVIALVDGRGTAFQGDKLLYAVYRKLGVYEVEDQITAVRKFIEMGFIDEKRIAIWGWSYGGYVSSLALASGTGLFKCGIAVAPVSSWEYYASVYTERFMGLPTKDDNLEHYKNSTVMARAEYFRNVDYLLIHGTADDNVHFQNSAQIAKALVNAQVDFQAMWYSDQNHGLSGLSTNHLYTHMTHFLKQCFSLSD
Put plainly: FAPα enzymatic endopeptidase (collagenase) activity assay, DQ collagen. The format is biochemical. The following applies: Table 2, read-out: rhFAPα (endo IC50).

The test system of assay [2] is human AML cell line MV4-11. Put plainly: Cytotoxicity assay in human leukemia cell lines (Cell-Titer Glo). As to conditions: MV4-11, 48 h, read-out: MV4-11 viability IC50, μM.

Sequence of circulating FAPα (A0ABM2XF29 24-761 limits assumed): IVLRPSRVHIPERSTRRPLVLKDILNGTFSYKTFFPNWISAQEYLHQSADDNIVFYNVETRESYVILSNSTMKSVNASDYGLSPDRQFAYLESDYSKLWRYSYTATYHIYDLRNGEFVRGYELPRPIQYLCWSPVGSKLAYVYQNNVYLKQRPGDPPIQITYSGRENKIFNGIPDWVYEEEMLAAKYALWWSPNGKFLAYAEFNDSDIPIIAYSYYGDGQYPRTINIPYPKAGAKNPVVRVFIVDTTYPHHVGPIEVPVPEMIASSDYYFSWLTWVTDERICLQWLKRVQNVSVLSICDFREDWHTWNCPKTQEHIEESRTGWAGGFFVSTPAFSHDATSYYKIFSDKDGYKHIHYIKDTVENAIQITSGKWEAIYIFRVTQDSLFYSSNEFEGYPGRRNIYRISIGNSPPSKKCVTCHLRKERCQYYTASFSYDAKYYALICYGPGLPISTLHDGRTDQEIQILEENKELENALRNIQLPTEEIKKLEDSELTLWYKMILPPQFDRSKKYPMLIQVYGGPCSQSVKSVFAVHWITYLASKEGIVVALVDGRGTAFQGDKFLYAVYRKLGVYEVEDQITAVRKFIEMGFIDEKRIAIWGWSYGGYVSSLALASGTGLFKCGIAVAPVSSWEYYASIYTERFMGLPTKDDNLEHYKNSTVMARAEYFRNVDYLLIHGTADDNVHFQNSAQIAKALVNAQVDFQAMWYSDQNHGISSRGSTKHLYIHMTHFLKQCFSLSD

For the molecule `COc1ccc(C(=O)Nc2cnccc2C(=O)NCC(=O)N2CC(F)(F)C[C@H]2C#N)cc1` [Compound 3, (S)—N-(2-(2-cyano-4,4-difluoropyrrolidin-1-yl)-2-oxoethyl)-3-(4-methoxybenzamido)isonicotinamide], the IC50 (against circulating FAPα; in assay [1]) was less than 1 µM in each case.

As to `N#C[C@@H]1CC(F)(F)CN1C(=O)CNC(=O)c1ccncc1/C=C/c1ccc(Cl)cc1` [Compound 9, (S,E)-3-(4-chlorostyryl)-N-(2-(2-cyano-4,4-difluoropyrrolidin-1-yl)-2-oxoethyl)isonicotinamide], the IC50 (commonly the concentration that gives 50% inhibition) on circulating FAPα is less than 1 µM; in assay [2], greater than 10 µM; in assay [1], less than 1 µM.

These data come from patent US20200216417A1, “INHIBITORS OF FIBROBLAST ACTIVATION PROTEIN” (Praxis Biotech LLC, priority 2019, published 2020).
